Tested on: Normal human bladder epithelial cells
Test: Inhibition of APF activity by recombinant growth factors, low molecular weight urine fractions, 3H-thymidine incorporation
Type: cell-based
Settings: simultaneous exposure to recombinant growth factor and <3 kDa urine fraction, 48 hours; HB-EGF 0-100 ng/ml (effect evident at 10 ng/ml), EGF 0-100 ng/ml, IGF-1 0-300 pg/ml; FIGS. 6A-6C
Description: Primary normal adult human bladder epithelial (HBE) cells were cultured by the method described above in Part II. On the third day of incubation, cell medium was replaced by serum free MEM containing the less than 3 kDa fraction (i.e, containing the APF) of urine specimens from IC patients or controls (i.e., that part containing the anti-proliferative factor or APF described in related application Ser. No. 08/944,202), or HPLC-purified APF or its mock control along with varying concentrations of recombinant HB-EGF (0-100 ng/ml), EGF (0-100 ng/ml), or IGF-1 (0-300 pg/ml) [all from R & D Systems, Minneapolis, Minn.] diluted in phosphate buffered saline (1:1:1). Urine was prepared by the method described above in Part II and HPLC purified APF was prepared as described above. Following an additional 48 hours of incubation at 37 degrees C. in a 5% CO2 atmosphere, cell proliferation was assessed by ^3H-thymidine incorporation according to the published methods^38.
Normal human bladder epithelial cells were exposed simultaneously to recombinant human growth factors (HB-EGF, EGF, or IGF1) and low molecular weight fractions from IC patients or control urine specimens. Cell proliferation was determined 48 hours later by 3H-thymidine incorporation (FIGS. 6A-6C). Bar values indicate the mean of 5-8 determinations. Vertical lines indicate the standard error of the mean.

| Substance | inhibition of APF antiproliferative activity |
| --- | --- |
| IGF1: recombinant insulin-like growth factor 1 from R & D Systems | unable to completely inhibit APF activity |
| epidermal growth factor (NSDSECPLSHDGYCLHDGVCMYIEALDKYACNCVVGYIGERCQYRDLKWWELR; UniProt P01133 971-1023, looked up) [EGF, recombinant epidermal growth factor from R & D Systems] | unable to completely inhibit APF activity |
